In the test the target is Signal transducer and activator of transcription 3 (Homo sapiens) (UniProt P40763). Put plainly: Inhibition of STAT3 in human HeLa cells after 24 hrs by luciferase reporter gene assay. Format: cell-based. Background: In a reporter assay the amount or activity of a reporter protein is the signal.

Activity calls are given as the source filed them. The rule behind the calls is not given here.

Sequence of Signal transducer and activator of transcription 3 (Homo sapiens) (P40763 whole entry): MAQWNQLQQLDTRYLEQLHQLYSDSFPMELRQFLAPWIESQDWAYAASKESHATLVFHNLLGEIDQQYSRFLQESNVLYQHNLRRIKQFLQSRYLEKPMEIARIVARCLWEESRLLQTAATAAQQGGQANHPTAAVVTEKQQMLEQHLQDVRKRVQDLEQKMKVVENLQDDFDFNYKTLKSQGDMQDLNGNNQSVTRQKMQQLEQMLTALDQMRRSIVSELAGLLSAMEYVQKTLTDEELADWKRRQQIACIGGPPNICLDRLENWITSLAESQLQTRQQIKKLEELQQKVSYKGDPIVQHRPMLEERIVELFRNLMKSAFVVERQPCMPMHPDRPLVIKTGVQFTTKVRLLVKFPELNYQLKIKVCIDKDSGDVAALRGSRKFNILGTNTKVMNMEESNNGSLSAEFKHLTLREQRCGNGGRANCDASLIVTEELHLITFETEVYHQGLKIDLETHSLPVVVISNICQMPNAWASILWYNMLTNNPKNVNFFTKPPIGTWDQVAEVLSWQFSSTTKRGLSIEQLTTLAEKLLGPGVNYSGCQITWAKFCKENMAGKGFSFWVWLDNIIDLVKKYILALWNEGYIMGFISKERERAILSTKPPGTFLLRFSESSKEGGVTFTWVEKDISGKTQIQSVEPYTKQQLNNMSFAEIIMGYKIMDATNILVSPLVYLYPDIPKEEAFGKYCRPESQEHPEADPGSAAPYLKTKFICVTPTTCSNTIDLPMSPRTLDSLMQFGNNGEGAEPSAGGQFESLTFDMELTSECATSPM

Regarding `COc1ccc(-c2cc(=O)c3c(O)cc(O[C@@H]4O[C@H](CO[C@@H]5O[C@@H](C)[C@H](O)[C@@H](O)[C@H]5O)[C@@H](O)[C@H](O)[C@H]4O)cc3o2)cc1O`, the inhibition result was “inactive”.

Values taken from ChEMBL document CHEMBL1687697 (ACS Med Chem Lett, 2010).
